Measurements reported in publication PMC9555310, “Novel inhibitors and activity-based probes targeting serine proteases” (Frontiers in Chemistry, 2022).

Biological target: T1, trypsin (Sus scrofa, UniProt P00761)
T1 construct: purchased Sigma-Aldrich; host or cells: porcine pancreas
Assay: Irreversible inhibition kinetics of trypsin (fluorogenic substrate progress curves)
Assay type: biochemical, porcine
Protocol: A range of inhibitor concentrations were prepared from a 10 mM stock solution of the test compounds (NAP533, NAP559, NAP800, NAP830, NAP849, and NAP962) in N, N-dimethylformamide (DMF). Recombinant protease activities were assayed using the cognate fluorogenic substrates as follows: trypsin (Z-Gly-Gly-Arg-NHMec), thrombin (Boc-Val-Pro-Arg-NHMec), plasmin (Boc-Val-Leu-Lys-NHMec), human neutrophil elastase (MeO-Succinyl-Ala-Ala-Pro-Val-NHMec), and chymotrypsin (Succinyl-Ala-Ala-Pro-Phe-NHMec). Each substrate was used at a final concentration of 50 μM, in the appropriate buffer for each protease. All inhibition assays were performed in microtiter plates maintained at 37°C in a final volume of 100 μL. The reaction was initiated by the addition of each protease (approx. 0.01 μg/well) and the rate of substrate hydrolysis was recorded continuously at 37°C, over a 60 min period, by measuring the rate of increase in fluorescence (at λex 360 nm, λem 480 nm) using a FLUOstar Optima microplate reader (BMG Labtech).
The resultant inhibition progress curves obtained for each inhibitor were analyzed by the kinetic models developed by [Tian and Tsou (1982)] and [Walker and Elmore (1984)], for irreversible inhibitors, with curve fitting being achieved using GraFit (Erithacus Software), as described previously ([Ferguson et al., 2016]).
FIGURE 4 Progress curves for (A), chymotrypsin-catalysed hydrolysis of Succinyl-Ala-Ala-Pro-Phe-NHMec, in the presence of varying concentrations of NAP849. (B), NE-catalysed hydrolysis of MeO-succinyl-Ala-Ala-Pro-Val-NHMec, in the presence of varying concentrations of NAP800. (C) Trypsin-catalysed of Z-Gly-Gly-Arg-NHMec, in the presence of NAP830. (D) Plasmin-catalysed hydrolysis of Boc-Val-Leu-Lys-NHMec, in the presence of varying concentrations of NAP962. Assays were carried out in PBS, pH 7.4, at 37°C, in the presence of a range of inhibitor concentrations (0.25–50 μM) and a fixed concentration (50 μM) of the appropriate substrate for each protease. […]
Protease inactivation by each of the compounds under study was evaluated using a fluorogenic enzyme assays. […]

T1 sequence (P00761 9-231): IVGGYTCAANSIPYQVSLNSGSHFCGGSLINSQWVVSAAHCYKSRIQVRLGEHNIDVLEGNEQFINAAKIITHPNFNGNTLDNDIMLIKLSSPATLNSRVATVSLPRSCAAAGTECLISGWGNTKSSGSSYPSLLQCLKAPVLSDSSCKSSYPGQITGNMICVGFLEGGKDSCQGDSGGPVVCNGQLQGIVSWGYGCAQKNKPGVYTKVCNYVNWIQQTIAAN

NCCCCN(CC(=O)NCC(=O)NCC(=O)NCCCOCCOCCOCCCNC(=O)CCCCC1SCC2NC(=O)NC21)C(=O)ON1C(=O)CCC1=O (stereo not drawn) [NAP830, Succinimidoyl-CO-NLys-Gly-Gly-PEG-Biotin]
k 3 (first-order rate constant, PBS pH 7.4, 37°C, mean ± SD (n=2)): 0.6 (+ 0.2) min^−1 | effectiveness as irreversible inhibitor relative to the analogous lysine diphenyl phosphonate QUBTL2 (fold greater than QUBTL2): two-fold | k 3 / K i (second-order rate constant of inactivation, PBS pH 7.4, 37°C, mean ± SD (n=2)): 45700 M⁻¹ s⁻¹
